Laboratory results from patent publication US9102591B2, “Benzamides” (H. Lundbeck A/S, priority 2012, dated 2015).

The molecules below were run against P2X7 receptor (Homo sapiens (Human), UniProt Q99572) (assay: P2X7 FLIPR assay (BzATP-stimulated calcium fluorescence, antagonist IC50)).
Assay type: cell-based
In short: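 Cells expressing P2X7 receptor (human, rat or mouse), plated 24 hours earlier in low-serum medium, loaded with Fluo-4 NW dye (30 min 37° C, 30 min room temperature).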

P2X7 receptor, sequence (Q99572 whole entry): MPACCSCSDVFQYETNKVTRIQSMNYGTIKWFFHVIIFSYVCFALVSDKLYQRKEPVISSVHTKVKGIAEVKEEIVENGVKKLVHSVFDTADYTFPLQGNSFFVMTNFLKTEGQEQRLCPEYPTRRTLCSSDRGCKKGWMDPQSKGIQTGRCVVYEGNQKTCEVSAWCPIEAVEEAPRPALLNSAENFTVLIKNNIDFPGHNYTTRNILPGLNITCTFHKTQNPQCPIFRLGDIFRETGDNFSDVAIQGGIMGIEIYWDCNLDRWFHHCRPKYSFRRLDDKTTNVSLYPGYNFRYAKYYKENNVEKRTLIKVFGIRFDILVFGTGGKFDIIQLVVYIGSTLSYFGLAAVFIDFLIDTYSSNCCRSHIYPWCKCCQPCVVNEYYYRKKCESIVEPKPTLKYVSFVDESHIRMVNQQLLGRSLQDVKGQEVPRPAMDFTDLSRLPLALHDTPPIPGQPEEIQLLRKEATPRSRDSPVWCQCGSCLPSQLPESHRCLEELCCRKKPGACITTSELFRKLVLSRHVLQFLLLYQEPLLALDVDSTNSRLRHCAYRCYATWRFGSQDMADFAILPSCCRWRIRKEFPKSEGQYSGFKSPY

SMILES | IC50
O=C(NCC(CC1CC1)c1ccc(C(F)F)nc1)c1cccc(F)c1Cl (single isomer, unassigned; (+)) [(+)2-chloro-N-[3-cyclopropyl-2-[6-(difluoromethyl)-3-pyridyl] [(+)2-chloro-N-[3-cyclopropyl-2-[6-(difluoromethyl)-3-pyridyl]propyl]-3-fluoro-benzamide] | 800 nM
O=C(NCC(CC1CC1)c1cnc(C(F)(F)F)nc1)c1cccc(F)c1Cl (single isomer, unassigned; (+)) [(+)2-chloro-N-[3-cyclopropyl-2-[2-(trifluoromethyl)pyrimidin] [(+)2-chloro-N-[3-cyclopropyl-2-[2-(trifluoromethyl)pyrimidin-5-yl]propyl]-3-fluoro-benzamide] | 50 nM
O=C(NCC(CC1CC1)c1ccc(C(F)(F)F)nc1)c1c(F)cccc1F (single isomer, unassigned; (+)) [(+)N-[3-cyclopropyl-2-[6-(trifluoromethyl)-3-pyridyl]propyl]] [(+)N-[3-cyclopropyl-2-[6-(trifluoromethyl)-3-pyridyl]propyl]-2,6-difluoro-benzamide] | 740 nM
CS(=O)(=O)c1ccc(Cl)c(C(=O)NCC2(c3ccc(F)nc3)CCC(F)(F)CC2)c1 [2-chloro-N-((4,4-difluoro-1-(6-fluoropyridin-3-yl)cyclohexyl)methyl)-5-(methylsulfonyl)benzamide] | 8.7 nM
O=C(NCC(c1ccc(F)cc1)c1cnc(C(F)(F)F)nc1)c1cccc(F)c1Cl (single isomer, unassigned; (-)) [(−)2-chloro-3-fluoro-N-[2-(4-fluorophenyl)-2-[2-(trifluorome] [(−)2-chloro-3-fluoro-N-[2-(4-fluorophenyl)-2-[2-(trifluoromethyl)pyrimidin-5-yl]ethyl]benzamide] | 1.8 nM
Cc1ncc(C2(C(C)NC(=O)c3cccc(F)c3Cl)CCC(F)(F)CC2)cn1 (stereo not shown) [2-chloro-N-[1-[4,4-difluoro-1-(2-methylpyrimidin-5-yl)cyclohexyl]ethyl]-3-fluoro-benzamide] | 2000 nM
O=C(NCC(c1ccc(F)cc1)c1ccc(C(F)(F)F)nc1)c1ccccc1Cl (single isomer, unassigned; (+)) [(+)2-chloro-N-[2-(4-fluorophenyl)-2-[6-(trifluoromethyl)-3-p] [(+)2-chloro-N-[2-(4-fluorophenyl)-2-[6-(trifluoromethyl)-3-pyridyl]ethyl]benzamide] | 2.2 nM
O=C(NCC(c1ccc(Cl)cc1)C1CCOCC1)c1cccc(F)c1Cl (stereo not shown) [2-chloro-N-[2-(4-chlorophenyl)-2-tetrahydropyran-4-yl-ethyl]-3-fluoro-benzamide] | 15 nM
CC(C)(O)c1ccc(C(CNC(=O)c2cccc(Cl)c2Cl)CC2CC2)cn1 (single isomer, unassigned; (+)) [(+)2,3-dichloro-N-[3-cyclopropyl-2-[6-(1-hydroxy-1-methyl-et] [(+)2,3-dichloro-N-[3-cyclopropyl-2-[6-(1-hydroxy-1-methyl-ethyl)-3-pyridyl]propyl]benzamide] | 740 nM
O=C(NCC(c1ccc(F)cc1)c1cnc(C(F)(F)F)nc1)c1c(F)cccc1Cl (single isomer, unassigned; (+)) [(+)2-chloro-6-fluoro-N-[2-(4-fluorophenyl)-2-[2-(trifluorome] [(+)2-chloro-6-fluoro-N-[2-(4-fluorophenyl)-2-[2-(trifluoromethyl)pyrimidin-5-yl]ethyl]benzamide] | 6.7 nM
O=C(NCC(c1ccccc1)c1ccc(C(F)(F)F)nc1)c1c(Cl)cccc1Cl (single isomer, unassigned; (-)) [(−)2,6-dichloro-N-[2-phenyl-2-[6-(trifluoromethyl)-3-pyridyl] [(−)2,6-dichloro-N-[2-phenyl-2-[6-(trifluoromethyl)-3-pyridyl]ethyl]benzamide] | 18 nM
O=C(NCC1(c2ccc(Cl)cc2)CCOCC1)c1ccccc1C(F)(F)F [N-[4-(4-Chloro-phenyl)-tetrahydro-pyran-4-ylmethyl]-2-trifluoromethyl-benzamide] | 1200 nM
O=C(NCC(CC1CC1)c1cnc(C(F)(F)F)nc1)c1cccc(F)c1Cl (single isomer, unassigned; (-)) [(−)2-chloro-N-[3-cyclopropyl-2-[2-(trifluoromethyl)pyrimidin] [(−)2-chloro-N-[3-cyclopropyl-2-[2-(trifluoromethyl)pyrimidin-5-yl]propyl]-3-fluoro-benzamide] | 4.7 nM
Cc1ccc(C(CNC(=O)c2cccc(Cl)c2Cl)CC2CC2)c(C)n1 (stereo not shown) [2,3-dichloro-N-[3-cyclopropyl-2-(2,6-dimethyl-3-pyridyl)propyl]benzamide] | 1300 nM
O=C(NCC(CC1CC1)c1ccc(C(F)(F)F)nc1)c1cccc(F)c1Cl (single isomer, unassigned; (+)) [(+)2-chloro-N-[3-cyclopropyl-2-[6-(trifluoromethyl)-3-pyridy] [(+)2-chloro-N-[3-cyclopropyl-2-[6-(trifluoromethyl)-3-pyridyl]propyl]-3-fluoro-benzamide] | 11 nM
O=C(NCC(c1cnc(C(F)(F)F)nc1)C1CCC(F)(F)CC1)c1ccccc1Cl (single isomer, unassigned; (-)) [(−)2-chloro-N-[2-(4,4-difluorocyclohexyl)-2-[2-(trifluoromet] [(−)2-chloro-N-[2-(4,4-difluorocyclohexyl)-2-[2-(trifluoromethyl)pyrimidin-5-yl]ethyl]benzamide] | 6.4 nM
O=C(NCC1(c2ccc(C(F)(F)F)nc2)CCOCC1)c1cccc(Cl)c1Cl [2,3-dichloro-N-((4-(6-(trifluoromethyl)pyridin-3-yl)tetrahydro-2H-pyran-4-yl)methyl)benzamide] | 52 nM

SMILES | IC50
O=C(NCC(c1ccc(C(F)(F)F)nc1)C1CC1)c1cccc(Cl)c1Cl (stereo not shown) [2,3-dichloro-N-(2-cyclopropyl-2-(6-(trifluoromethyl)pyridin-3-yl)ethyl)benzamide] | 120 nM
CS(=O)(=O)c1ccccc1C(=O)NCC1(c2ccc(C(F)(F)F)nc2)CCC(F)(F)CC1 [N-((4,4-difluoro-1-(6-(trifluoromethyl)pyridin-3-yl)cyclohexyl)methyl)-2-(methylsulfonyl)benzamide] | 480 nM
O=C(NCC1(c2ccc(F)nc2)CCC(F)(F)CC1)c1ccccc1Cl [2-chloro-N-((4,4-difluoro-1-(6-fluoropyridin-3-yl)cyclohexyl)methyl)benzamide] | 25 nM
O=C(NCC1(c2ccc(F)nc2)CCC(F)(F)CC1)c1c(F)cccc1Cl [2-chloro-N-[[4,4-difluoro-1-(6-fluoro-3-pyridyl)cyclohexyl]methyl]-6-fluoro-benzamide] | 14 nM
N#Cc1ccccc1C(=O)NCC1(c2ccc(C(F)(F)F)nc2)CCC(F)(F)CC1 [2-cyano-N-((4,4-difluoro-1-(6-(trifluoromethyl)pyridin-3-yl)cyclohexyl)methyl)benzamide] | 150 nM
O=C(NCC1(c2ccc(F)nc2)CCC(F)(F)CC1)c1cccc(F)c1F [N-((4,4-difluoro-1-(6-fluoropyridin-3-yl)cyclohexyl)methyl)-2,3-difluorobenzamide] | 290 nM
COc1cccc(C(=O)NCC(CC2CC2)c2cnc(C(F)(F)F)nc2)c1C (single isomer, unassigned; (-)) [(−)N-[3-cyclopropyl-2-[2-(trifluoromethyl)pyrimidin-5-yl]pro] [(−)N-[3-cyclopropyl-2-[2-(trifluoromethyl)pyrimidin-5-yl]propyl]-3-methoxy-2-methyl-benzamide] | 1.4 nM
O=C(NCC1(c2ccc(F)nc2)CCC(F)(F)CC1)c1cc(C(F)(F)F)ccc1Cl [2-chloro-N-[[4,4-difluoro-1-(6-fluoro-3-pyridyl)cyclohexyl]methyl]-5-(trifluoromethyl)benzamide] | 1.2 nM
CC(C)(O)c1ccc(C2(CNC(=O)c3ccccc3Cl)CCC(F)(F)CC2)cn1 [2-chloro-N-[[4,4-difluoro-1-[6-(1-hydroxy-1-methyl-ethyl)-3-pyridyl]cyclohexyl]methyl]benzamide] | 380 nM
Cc1ccccc1C(=O)NCC1(c2ccc(C(F)(F)F)nc2)CCC(F)(F)CC1 [N-((4,4-difluoro-1-(6-(trifluoromethyl)pyridin-3-yl)cyclohexyl)methyl)-2-methylbenzamide] | 2.6 nM
O=C(NCC1(c2ccc(Cl)cc2)CCOCC1)c1cccc(C(F)(F)F)c1F [N-[4-(4-Chloro-phenyl)-tetrahydro-pyran-4-ylmethyl]-2-fluoro-3-trifluoromethyl-benzamide] | 4300 nM
O=C(NCC(CC1CC1)c1cnc(C(F)(F)F)nc1)c1c(F)cccc1Cl (stereo not shown) [2-chloro-N-(3-cyclopropyl-2-(2-(trifluoromethyl)pyrimidin-5-] [2-chloro-N-(3-cyclopropyl-2-(2-(trifluoromethyl)pyrimidin-5-yl)propyl)-6-fluorobenzamide] | 22 nM
O=C(NCC1(c2ccc(Cl)cc2)CCOCC1)c1c(Cl)cccc1Cl [2,6-Dichloro-N-[4-(4-chloro-phenyl)-tetrahydro-pyran-4-ylmethyl]-benzamide] | 360 nM
O=C(NCC1(c2cnc(C(F)(F)F)nc2)CCOCC1)c1cccc(Cl)c1Cl [2,3-dichloro-N-[[4-[2-(trifluoromethyl)pyrimidin-5-yl]tetrahydropyran-4-yl]methyl]benzamide] | 250 nM
O=C(NCC1(c2cnc(C(F)(F)F)nc2)CCC(F)(F)CC1)c1cccc(Cl)c1Cl [2,3-dichloro-N-[[4,4-difluoro-1-[2-(trifluoromethyl)pyrimidin-5-yl]cyclohexyl]methyl]benzamide] | 0.95 nM
O=C(NCC(c1cnc(C(F)(F)F)nc1)C1CCOCC1)c1cccc(Cl)c1Cl (single isomer, unassigned; (-)) [(−)2,3-dichloro-N-[2-tetrahydropyran-4-yl-2-[2-(trifluoromethyl)pyrimidin-5-yl]ethyl]benzamide] | 11 nM
O=C(NCC(c1cnc(C(F)(F)F)nc1)C1CCC(F)(F)CC1)c1cccc(Cl)c1Cl (single isomer, unassigned; (+)) [(+)2,3-dichloro-N-[2-(4,4-difluorocyclohexyl)-2-[2-(trifluor] [(+)2,3-dichloro-N-[2-(4,4-difluorocyclohexyl)-2-[2-(trifluoromethyl)pyrimidin-5-yl]ethyl]benzamide] | 5.7 nM
